System: adenosine monophosphate induced bronchoconstriction
Assay: Attenuation of adenosine monophosphate (AMP) induced bronchoconstriction (Example E)
Format: in vivo, Atopic healthy volunteers
Conditions: AMP dose giving a 40% reduction in pEFR, pretreatment inhaled for five minutes from a Wright Nebuliser
Description: Effect of active ingredients A and B, separately and in combination in attenuating adenosine monophosphate induced bronchoconstriction
Atopic healthy volunteers were selected for the study. Prior to the administration of pretreatment, baseline values of forced expiratory volume in one second (FEV₁), partial expiratory flow rate (pEFR) and maximum expiratory flow rate (mEFR) were measured. Measurement was made on at least three occasions or until the readings were stable (less than 5% variation). On each occasion the pretreatment was inhaled for five minutes from a Wright Nebuliser (operating at a flow rate of 7 litres per minute) through the mouth during tidal breathing.
Prior to the commencement of adenosine monophosphate (AMP) challenge FEV₁, pEFR and mEFR were measured. The AMP challenge was performed on each study day by giving doubling doses of AMP, each inhaled for two minutes, from either a Wright Nebuliser (operating at a flow rate of 6.5 litres per minute) or an Acorn Nebuliser (operating at a flow rate of 5.5 litres per minute) until a reduction in pEFR of greater than 40% occurs. The nebuliser chosen for each subject was the same throughout the study. AMP was given in a 1 mg/ml-256 mg/ml concentration range, the diluent being physiological saline. Successive doses were administered at 5 minute intervals. Partial expiratory flow rates were measured at 0.5 and 2.5 minutes after each AMP dose. The dose giving a 40% (PD₄₀) reduction in pEFR was determined by interpolation from a log dose response curve.
The results given in Table 1 were obtained using the procedure of Example E in four volunteers. Ingredient A was nedocromil sodium administered as a 0.5% w/v aqueous solution; ingredient B was atropine methonitrate administered as a 0.2% w/v aqueous solution. The combination was an aqueous solution containing 0.5% w/v nedocromil sodium and 0.2% w/v atropine methonitrate.

SMILES: CCCc1c2oc(C(=O)O)cc(=O)c2cc2c(=O)cc(C(=O)O)n(CC)c12 [Ingredient A, nedocromil sodium]
- PD40 (Volunteer 1): 43 mg/mL
- PD40 (Volunteer 2): 32 mg/mL
- PD40 (Volunteer 3): 17 mg/mL
- PD40 (Volunteer 4): 27 mg/mL

SMILES: C[N+]1(C)[C@@H]2CC[C@H]1C[C@@H](OC(=O)C(CO)c1ccccc1)C2 (some centres unmarked) [Ingredient B, atropine methonitrate]
- PD40 (Volunteer 1): 42 mg/mL
- PD40 (Volunteer 2): 23 mg/mL
- PD40 (Volunteer 3): 12 mg/mL
- PD40 (Volunteer 4): 3.4 mg/mL
